Where two headings read alike, the source gives them in different places.
What was measured:
[1] = test system: lepidopteran larvae: cabbage loopers (Trichoplusia ni) and beet armyworms (Spodoptera exigua); format: in vivo; conditions: plants
Experimental: In a first group of tests, the results of which are shown in Table 7 (pages 22-24), romaine lettuce plants two to three inches in height were exposed to 10 milliliters of solution applied to each plant using a low volume trigger spray. With respect to containers 0-7, ten plants were employed per container, nine were treated and one was an internal control. In containers M-H, ten plants per container were used, five were treated and 5 were internal controls. Each container was infested with 30 lepidopteran larvae between the 5th and 6th instar development. Fifteen cabbage loopers (Trichoplusia ni) and 15 beet armyworms (Spodoptera exigua) were used to infest the romaine lettuce plants. Visual evaluations for the average percentage total surface area damage were taken 24 hours after infestation. Percentage damage was evaluated by 5% increments for total damage across all plant leaves.
As indicated in the first column of Table 7, in some tests, no insecticide was employed and there were two controls; a no water control and a no dye control. A wide variety of insecticides selected from the following group were tested: Chlorantranilopril, Acephate, Methoxyfenozide, Spinosad, Permethrin, and Indoxacarb. The product concentration is shown in PPM in column 2. Column 3 is divided into two subunits, the first being CO3 and the second, PO4. In all instances in columns 3, 4 and 5 and their sub-columns, the concentrations used were 200:1. The fourth column employed amine oxide, but no buffer. […] Two sub-columns each are represented for CO3 and PO4. The final column is a reading of the Percent Lepidopteran Damage to the romaine lettuce plants after 24 hours.
In addition to testing the buffered amine system of the present invention with the two amine oxides identified as CO3 and PO4 and their use with 12 carbon length and a mixture of 12 and 18 designated 1218 for comparative data purposes various differences were created in the testing. Some of the tests were performed with (a) no insecticide along with (b) no amine oxide for CO3 and PO4 and (c) with no buffer, but with amine oxide. Also, tests were run using no insecticide and no water control with no foliar application being made. Tests with no insecticide and no dye control employed foliar application of water only. The tests were conducted with all of the testing on the buffer alone, the amine oxide alone and the buffered amine oxide system of the present invention in the concentration of 200:1.

[2] = test system: lepidopteran larvae: cabbage loopers (Trichoplusia ni) and beet armyworms (Spodoptera exigua); format: in vivo; conditions: leaf discs
Source text: A second series of tests involved romaine lettuce discs approximately ⅝ inch in diameter. (L. sativa). They were dipped in the treatment solution one second per disc. This test involved the 5/5 configuration, i.e., 5 treated and 5 untreated. The infestation involved […] lepidopteran larvae at the 3rd to 4th instar development per container: four cabbage loopers (Trichoplusia ni), and four beet armyworms (Spodoptera exigua) were employed. The test containers were placed in a dark humidity cabinet at 15° C. and 80% relative humidity. Visual evaluations of the average percent damage were taken at 24, 48 and 72 hours after the initiation of infestation. Damage was evaluated in 5% increments based on total disc area.
In the tests reported in Table 8 pages 29-32), romaine lettuce leaf discs ⅝″ in diameter (L. sativa) were dipped in the treatment solution for about one second per disc. Infestation was provided by eight lepidopteran larvae at the 3rd to 4th instar development per container. Four cabbage loopers (Trichoplusia ni) and four beet armyworms (Spodoptera exigua) were employed in infestation. The containers were placed in a dark humidity cabinet at 15° C. and 80% relative humidity. Visual observations of the average percent damage was taken at 24, 48 and 72 hours after infestation. Damage evaluation was by 5% increments over the total disc area.
In the tests results provided in Table 8, the identity and concentrations of the insecticide was identical to the tests results reported in Table 7. The concentration of 200:1 was employed for the no amino oxide, no buffer and buffered amine oxide system. This series of tests, however, reported how the percent damage changed with time at the respective 24, 48 and 72 hour intervals.

[3] = insecticide + CO3 buffer 200:1, no amine oxide, PPM: Chlorantranilopril 60, Acephate 70, Methoxyfenozide 100, Spinosad 30, Permethrin 10, Indoxacarb 50
[4] = insecticide + PO4 buffer 200:1, no amine oxide, PPM: Chlorantranilopril 60, Acephate 70, Methoxyfenozide 100, Spinosad 30, Permethrin 10, Indoxacarb 50
[5] = insecticide + amine oxide 12, no buffer, 200:1, PPM: Chlorantranilopril 60, Acephate 70, Methoxyfenozide 100, Spinosad 30, Permethrin 10, Indoxacarb 50
[6] = insecticide + amine oxide 1218, no buffer, 200:1, PPM: Chlorantranilopril 60, Acephate 70, Methoxyfenozide 100, Spinosad 30, Permethrin 10, Indoxacarb 50
[7] = insecticide + buffered amine oxide system CO3, 12, 200:1, PPM: Chlorantranilopril 60, Acephate 70, Methoxyfenozide 100, Spinosad 30, Permethrin 10, Indoxacarb 50
[8] = insecticide + buffered amine oxide system CO3, 1218, 200:1, PPM: Chlorantranilopril 60, Acephate 70, Methoxyfenozide 100, Spinosad 30, Permethrin 10, Indoxacarb 50
[9] = insecticide + buffered amine oxide system PO4, 12, 200:1, PPM: Chlorantranilopril 60, Acephate 70, Methoxyfenozide 100, Spinosad 30, Permethrin 10, Indoxacarb 50
[10] = insecticide + buffered amine oxide system PO4, 1218, 200:1, PPM: Chlorantranilopril 60, Acephate 70, Methoxyfenozide 100, Spinosad 30, Permethrin 10, Indoxacarb 50
[11] = insecticide alone, highest, PPM: Chlorantranilopril 120, Acephate 140, Methoxyfenozide 200, Spinosad 60, Permethrin 20, Indoxacarb 100
[12] = insecticide alone, increased, PPM: Chlorantranilopril 90, Acephate 105, Methoxyfenozide 150, Spinosad 45, Permethrin 15, Indoxacarb 75
[13] = insecticide alone, PPM: Chlorantranilopril 60, Acephate 70, Methoxyfenozide 100, Spinosad 30, Permethrin 10, Indoxacarb 50

Question: Which “Percent Lepidopteran Damage to Romaine Lettuce 24 hr” value [1, 3] does the source give for `COC(=O)N(C(=O)N1CO[C@@]2(C(=O)OC)Cc3cc(Cl)ccc3C2=N1)c1ccc(OC(F)(F)F)cc1` [Indoxacarb] here?
Answer: 50.5%

Question: What about the “Percent Lepidopteran Damage to Romaine Lettuce 24 hr” value [1, 4] of the same molecule?
Answer: 25.5%

Question: And the “Percent Lepidopteran Damage to Romaine Lettuce 24 hr” value [1, 5]?
Answer: 26.5%

Question: And the “Percent Lepidopteran Damage to Romaine Lettuce 24 hr” value [1, 6]?
Answer: 25.5%

Question: And the “Percent Lepidopteran Damage to Romaine Lettuce 24 hr” value [1, 7]?
Answer: 7.0%

Question: And the “Percent Lepidopteran Damage to Romaine Lettuce 24 hr” value [1, 8]?
Answer: 7.0%

Question: What about the “Percent Lepidopteran Damage to Romaine Lettuce 24 hr” value [1, 9] of the same molecule?
Answer: 7.5%

Question: And the “Percent Lepidopteran Damage to Romaine Lettuce 24 hr” value [1, 10]?
Answer: 8.0%

Question: What about the “Percent Lepidopteran Damage to Romaine Lettuce 24 hr” value [1, 11] of the same molecule?
Answer: 12.0%

Question: What about the “Percent Lepidopteran Damage to Romaine Lettuce 24 hr” value ([1]; insecticide alone, highest, PPM: Chlorantranilopril 120, Acephate 140, Methoxyfenozide 200, Spinosad 60, Permethrin 20, Indoxacarb 100, listed as lndoxacarb) of the same molecule?
Answer: 12.5%

Question: And the “Percent Lepidopteran Damage to Romaine Lettuce 24 hr” value [1, 12]?
Answer: 20.0%

Question: What about the “Percent Lepidopteran Damage to Romaine Lettuce 24 hr” value [1, 13] of the same molecule?
Answer: 47.0%

Question: What about the “Percent Lepidopteran Damage to Romaine Lettuce 24 hr” value [2, 3] of the same molecule?
Answer: 21.5%

Question: What about the “Percent Lepidopteran Damage to Romaine Lettuce 24 hr” value [2, 4] of the same molecule?
Answer: 22.5%

Question: And the “Percent Lepidopteran Damage to Romaine Lettuce 24 hr” value [2, 5]?
Answer: 45.5%

Question: And the “Percent Lepidopteran Damage to Romaine Lettuce 24 hr” value [2, 6]?
Answer: 44.5%

Question: And the “Percent Lepidopteran Damage to Romaine Lettuce 24 hr” value [2, 7]?
Answer: 33.5%

Question: And the “Percent Lepidopteran Damage to Romaine Lettuce 24 hr” value [2, 8]?
Answer: 26.5%

Question: And the “Percent Lepidopteran Damage to Romaine Lettuce 24 hr” value [2, 9]?
Answer: 61.0%

Question: And the “Percent Lepidopteran Damage to Romaine Lettuce 24 hr” value [2, 10]?
Answer: 19.0%

Question: What about the “Percent Lepidopteran Damage to Romaine Lettuce 24 hr” value [2, 11] of the same molecule?
Answer: 25.0%

Question: What about the “Percent Lepidopteran Damage to Romaine Lettuce 24 hr” value [2, 12] of the same molecule?
Answer: 32.0%

Question: What about the “Percent Lepidopteran Damage to Romaine Lettuce 24 hr” value [2, 13] of the same molecule?
Answer: 19.5%

Question: And the “Percent Lepidopteran Damage to Romaine Lettuce 48 hr” value [2, 3]?
Answer: 29.0%

Question: And the “Percent Lepidopteran Damage to Romaine Lettuce 48 hr” value [2, 4]?
Answer: 25.0%

Question: What about the “Percent Lepidopteran Damage to Romaine Lettuce 48 hr” value [2, 5] of the same molecule?
Answer: 55.0%

Question: What about the “Percent Lepidopteran Damage to Romaine Lettuce 48 hr” value [2, 6] of the same molecule?
Answer: 68.0%

Question: And the “Percent Lepidopteran Damage to Romaine Lettuce 48 hr” value [2, 7]?
Answer: 46.5%

Question: And the “Percent Lepidopteran Damage to Romaine Lettuce 48 hr” value [2, 8]?
Answer: 50.5%

Question: And the “Percent Lepidopteran Damage to Romaine Lettuce 48 hr” value [2, 9]?
Answer: 63.5%

Question: And the “Percent Lepidopteran Damage to Romaine Lettuce 48 hr” value [2, 10]?
Answer: 34.5%

Question: What about the “Percent Lepidopteran Damage to Romaine Lettuce 48 hr” value [2, 11] of the same molecule?
Answer: 35.5%

Question: And the “Percent Lepidopteran Damage to Romaine Lettuce 48 hr” value [2, 12]?
Answer: 38.0%

Question: And the “Percent Lepidopteran Damage to Romaine Lettuce 48 hr” value [2, 13]?
Answer: 68.5%

Question: What about the “Percent Lepidopteran Damage to Romaine Lettuce 72 hr” value [2, 3] of the same molecule?
Answer: 37.5%

Question: What about the “Percent Lepidopteran Damage to Romaine Lettuce 72 hr” value [2, 4] of the same molecule?
Answer: 32.5%

Question: What about the “Percent Lepidopteran Damage to Romaine Lettuce 72 hr” value [2, 5] of the same molecule?
Answer: 61.5%

Question: What about the “Percent Lepidopteran Damage to Romaine Lettuce 72 hr” value [2, 6] of the same molecule?
Answer: 71.0%

Question: And the “Percent Lepidopteran Damage to Romaine Lettuce 72 hr” value [2, 7]?
Answer: 57.5%

Question: What about the “Percent Lepidopteran Damage to Romaine Lettuce 72 hr” value [2, 8] of the same molecule?
Answer: 57.0%

Question: And the “Percent Lepidopteran Damage to Romaine Lettuce 72 hr” value [2, 9]?
Answer: 71.0%

Question: What about the “Percent Lepidopteran Damage to Romaine Lettuce 72 hr” value [2, 10] of the same molecule?
Answer: 34.5%

Question: What about the “Percent Lepidopteran Damage to Romaine Lettuce 72 hr” value [2, 11] of the same molecule?
Answer: 39.5%

Question: What about the “Percent Lepidopteran Damage to Romaine Lettuce 72 hr” value [2, 12] of the same molecule?
Answer: 72.0%

Question: What about the “Percent Lepidopteran Damage to Romaine Lettuce 72 hr” value [2, 13] of the same molecule?
Answer: 88.0%

— patent publication US10952433B2, “Solutions for enhancing the effectiveness of insecticides and fungicides on living plants and related methods” (priority 2015, dated 2021)
